Reference: patent US4351829A, “Use of polypeptides as analgesic drugs” (Farmitalia Carlo Erba Spa, priority 1980, dated 1982)
Read-outs that look alike come from different tables or passages of the source. Square brackets hold non-standard residues; d marks the D form. Peptide text beside a SMILES is read from it. sY = N[C@@H](Cc1ccc(OS(=O)(=O)O)cc1)C(=O)O; pGlu = O=C1CC[C@@H](C(=O)O)N1

Key:
[1] = cancer patients; intravenous bolus 1 nanogram/kg
Text: The average dosages for Cerulitide were from 0.5 nanograms/kg body weight (i.v.) to 300 nonograms/kg body weight (intramusculary), depending upon the treated pains, as set forth in the following examples.

With `CSCC[C@H](NC(=O)[C@H](Cc1c[nH]c2ccccc12)NC(=O)CNC(=O)[C@@H](NC(=O)[C@H](Cc1ccc(OS(=O)(=O)O)cc1)NC(=O)[C@H](CC(=O)O)NC(=O)[C@H](CCC(N)=O)NC(=O)[C@@H]1CCC(=O)N1)[C@@H](C)O)C(=O)N[C@@H](CC(=O)O)C(=O)N[C@@H](Cc1ccccc1)C(N)=O` [Ceruletide] ([pGlu]QD[sY]TGWMDF-NH2) the Side-effects [1] was “None”, the Side-effects (intramuscular 0.05 micrograms/kg, first injection) was “None” and the Side-effects (intramuscular 0.1 micrograms/kg) was “None and Burning sensation at the injection site and pain sensation at the injection site”. The Side-effects (second intramuscular injection 0.05 micrograms/kg) was “None”.
